The target in one test is SMARCA2 (Homo sapiens, UniProt P51531). As to the kind of experiment: HiBit assay in engineered HT1080 CRISPR knock-in cell, 6 hrs (B series), SMARCA2. It is filed as cell-based. The conditions noted are these: 6 hrs incubation; for DC50: HT1080 CRISPR knock-in cells, read-out: SMARC A2 HT1080 HiBit DC50; for Dmax: HT-1080, HT1080 CRISPR knock-in cells, read-out: SMARC A2 HT1080 HiBit Dmax (%). Summed up:
(§1)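 Engineered HT1080 knock-in cells, 2000 cells/well, 6 hrs compound exposure, 37° C/5% CO2, 0.1% DMSO final. Lytic detection: LgBiT 1:100 plus HiBiT substrate 1:50 in lytic buffer, 10 min shake at RT, luminescence read.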
In general terms: The HiBiT peptide binds its large partner to form an active luciferase.

A further test addresses SMARCA4 (Homo sapiens, UniProt P51532). In words: HiBit assay in engineered HT1080 CRISPR knock-in cell, 6 hrs (B series), SMARCA4. It is filed as cell-based. The conditions noted are these: 6 hrs incubation; for DC50: HT1080 CRISPR knock-in cells, read-out: SMARC A4 HT1080 HiBit DC50; for Dmax: HT-1080, HT1080 CRISPR knock-in cells, read-out: SMARC A4 HT1080 HiBit Dmax(%). In short, it runs like this: as §1

SMARCA4, sequence (P51532 whole entry): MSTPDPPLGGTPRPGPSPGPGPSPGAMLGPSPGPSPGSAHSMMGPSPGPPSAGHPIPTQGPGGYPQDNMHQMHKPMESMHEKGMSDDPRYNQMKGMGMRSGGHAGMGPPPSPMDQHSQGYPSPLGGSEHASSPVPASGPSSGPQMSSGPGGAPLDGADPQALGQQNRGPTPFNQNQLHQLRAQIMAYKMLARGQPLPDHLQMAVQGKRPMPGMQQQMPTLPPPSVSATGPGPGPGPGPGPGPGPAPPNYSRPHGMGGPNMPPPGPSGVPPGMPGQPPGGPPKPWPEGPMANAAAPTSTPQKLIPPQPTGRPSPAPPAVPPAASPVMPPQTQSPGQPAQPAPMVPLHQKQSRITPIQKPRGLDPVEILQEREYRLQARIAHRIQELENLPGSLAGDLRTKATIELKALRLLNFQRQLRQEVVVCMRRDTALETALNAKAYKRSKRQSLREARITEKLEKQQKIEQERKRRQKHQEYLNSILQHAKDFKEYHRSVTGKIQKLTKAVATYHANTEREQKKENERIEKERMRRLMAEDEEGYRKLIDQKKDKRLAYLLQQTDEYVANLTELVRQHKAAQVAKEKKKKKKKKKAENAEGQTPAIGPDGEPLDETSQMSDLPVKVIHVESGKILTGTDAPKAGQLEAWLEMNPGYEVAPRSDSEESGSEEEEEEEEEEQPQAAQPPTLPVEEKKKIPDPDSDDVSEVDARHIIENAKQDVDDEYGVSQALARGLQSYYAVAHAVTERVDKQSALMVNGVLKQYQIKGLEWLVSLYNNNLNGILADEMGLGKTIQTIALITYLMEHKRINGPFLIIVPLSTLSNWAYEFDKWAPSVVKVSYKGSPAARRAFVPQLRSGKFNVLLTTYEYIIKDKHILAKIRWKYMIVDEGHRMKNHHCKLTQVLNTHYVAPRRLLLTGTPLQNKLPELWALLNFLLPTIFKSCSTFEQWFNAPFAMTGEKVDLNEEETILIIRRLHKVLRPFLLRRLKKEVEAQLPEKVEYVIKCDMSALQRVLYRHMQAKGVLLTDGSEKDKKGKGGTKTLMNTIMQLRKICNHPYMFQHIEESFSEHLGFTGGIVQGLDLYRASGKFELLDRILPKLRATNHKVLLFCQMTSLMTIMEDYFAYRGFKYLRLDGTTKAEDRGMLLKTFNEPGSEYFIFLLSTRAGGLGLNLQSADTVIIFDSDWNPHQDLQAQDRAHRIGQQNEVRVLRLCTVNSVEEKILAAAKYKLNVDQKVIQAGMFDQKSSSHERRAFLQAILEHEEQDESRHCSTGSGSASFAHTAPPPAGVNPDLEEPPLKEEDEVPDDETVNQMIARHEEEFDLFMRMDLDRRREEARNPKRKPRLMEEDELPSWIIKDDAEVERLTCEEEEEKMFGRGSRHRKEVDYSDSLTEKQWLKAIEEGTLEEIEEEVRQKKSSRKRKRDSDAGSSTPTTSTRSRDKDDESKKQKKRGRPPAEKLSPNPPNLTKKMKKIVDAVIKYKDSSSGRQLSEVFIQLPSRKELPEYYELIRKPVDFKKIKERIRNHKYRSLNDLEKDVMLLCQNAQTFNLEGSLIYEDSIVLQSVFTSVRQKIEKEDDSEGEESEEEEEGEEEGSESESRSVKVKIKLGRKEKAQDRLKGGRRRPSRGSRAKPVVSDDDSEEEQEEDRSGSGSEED
SMARCA2, sequence (P51531 whole entry): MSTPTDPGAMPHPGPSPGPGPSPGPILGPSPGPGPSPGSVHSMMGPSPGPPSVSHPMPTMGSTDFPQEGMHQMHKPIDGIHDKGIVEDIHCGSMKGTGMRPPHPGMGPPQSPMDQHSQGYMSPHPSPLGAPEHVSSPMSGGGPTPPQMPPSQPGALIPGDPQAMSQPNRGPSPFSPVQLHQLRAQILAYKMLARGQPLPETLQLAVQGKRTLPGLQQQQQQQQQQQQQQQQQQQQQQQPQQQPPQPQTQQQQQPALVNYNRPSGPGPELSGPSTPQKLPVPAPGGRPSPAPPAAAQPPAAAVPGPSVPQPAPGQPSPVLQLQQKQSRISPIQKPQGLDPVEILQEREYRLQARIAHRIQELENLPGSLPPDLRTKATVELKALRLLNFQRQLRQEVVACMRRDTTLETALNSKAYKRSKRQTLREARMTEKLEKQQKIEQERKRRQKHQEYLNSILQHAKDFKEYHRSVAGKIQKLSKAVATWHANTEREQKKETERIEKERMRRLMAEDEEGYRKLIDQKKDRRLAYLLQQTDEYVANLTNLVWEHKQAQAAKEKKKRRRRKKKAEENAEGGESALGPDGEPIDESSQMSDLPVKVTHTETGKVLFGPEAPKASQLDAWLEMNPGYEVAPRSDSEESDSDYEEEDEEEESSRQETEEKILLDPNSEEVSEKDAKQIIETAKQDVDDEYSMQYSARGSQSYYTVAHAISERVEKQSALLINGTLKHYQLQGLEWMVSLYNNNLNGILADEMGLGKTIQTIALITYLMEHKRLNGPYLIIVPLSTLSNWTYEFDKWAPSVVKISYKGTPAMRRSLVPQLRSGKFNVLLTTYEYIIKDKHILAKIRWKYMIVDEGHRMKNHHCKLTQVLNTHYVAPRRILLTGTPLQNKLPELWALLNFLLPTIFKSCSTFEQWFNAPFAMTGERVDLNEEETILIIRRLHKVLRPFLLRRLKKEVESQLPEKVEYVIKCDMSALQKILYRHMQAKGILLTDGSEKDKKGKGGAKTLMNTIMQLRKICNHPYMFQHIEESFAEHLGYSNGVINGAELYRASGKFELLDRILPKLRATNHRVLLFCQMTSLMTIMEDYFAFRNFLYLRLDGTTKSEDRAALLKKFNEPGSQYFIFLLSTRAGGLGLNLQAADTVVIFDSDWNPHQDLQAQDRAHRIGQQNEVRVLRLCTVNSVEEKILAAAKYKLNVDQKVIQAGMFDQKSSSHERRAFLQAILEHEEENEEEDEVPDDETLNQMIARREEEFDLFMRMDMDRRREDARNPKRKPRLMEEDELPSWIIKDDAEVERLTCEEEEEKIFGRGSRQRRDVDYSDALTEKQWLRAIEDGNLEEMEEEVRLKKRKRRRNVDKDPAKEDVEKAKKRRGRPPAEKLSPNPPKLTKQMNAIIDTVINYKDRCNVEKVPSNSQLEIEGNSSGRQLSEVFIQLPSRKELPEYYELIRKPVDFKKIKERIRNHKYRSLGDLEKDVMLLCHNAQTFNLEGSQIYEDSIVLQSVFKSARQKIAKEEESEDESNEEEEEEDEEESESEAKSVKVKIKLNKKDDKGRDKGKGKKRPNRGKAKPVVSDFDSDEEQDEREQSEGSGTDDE

Turning to `Cc1nc(C)c(-c2ccc([C@H](C)NC(=O)[C@@H]3C[C@@H](O)CN3C(=O)[C@@H](n3cc([C@H]4CC[C@H](CN5CCN(c6ccc7c(c6)-n6c(nc(=O)c8c(Cl)cccc86)C76CCCCC6)CC5)CC4)nn3)C(C)(C)C)cc2)s1` [Compound B168, (2S,4R)-1-((S)-2-(4-((1,4S)-4-((4-(4′-chloro-5′-oxo-5′H-spiro[cyclohexane-1,7′-indolo[1,2-a]quinazolin]-10′-yl)piperazin-1-yl)methyl)cyclohexyl)-1H-1,2,3-triazol-1-yl)-3,3-dimethylbutanoyl)-N-((S)-1-(4-(2,4-dimethylthiazol-5-yl)phenyl)ethyl)-4-hydroxypyrrolidine-2-carboxamide], on SMARCA2, the DC50 is below 100 nM and the Dmax is above 90%. At SMARCA4, the DC50 lay within 100 to 500 nM and the Dmax lay in the range of 70 to 90%.

On to `Cc1ncsc1-c1ccc(CNC(=O)[C@@H]2C[C@@H](O)CN2C(=O)[C@@H](NC(=O)C2(F)CC2)C(C)(C)C)c(OCCN2CCC(c3ccc4c(c3)-n3c(nc(=O)c5c(Cl)cccc53)C4(C)C)CC2)c1` [Compound B34, (2S,4R)-N-(2-(2-(4-(4-chloro-7,7-dimethyl-5-oxo-5,7-dihydroindolo[1,2-a]quinazolin-10-yl)piperidin-1-yl)ethoxy)-4-(4-methylthiazol-5-yl)benzyl)-1-((S)-2-(1-fluorocyclopropane-1-carboxamido)-3,3-dimethylbutanoyl)-4-hydroxypyrrolidine-2-carboxamide], for which, at SMARCA2, the DC50 is below 100 nM and the Dmax was above 90%. At SMARCA4, the DC50 is below 100 nM and the Dmax was above 90%.

With `Cc1ncsc1-c1ccc([C@H](C)NC(=O)[C@@H]2C[C@@H](O)CN2C(=O)[C@@H](n2cc(CN3CCC(c4ccc5c(c4)-n4c(nc(=O)c6c(Cl)cccc64)C5(C)C)CC3)nn2)C(C)(C)C)cc1` [Compound B69, (2S,4R)-1-((S)-2-(4-((4-(4-chloro-7,7-dimethyl-5-oxo-5,7-dihydroindolo[1,2-a]quinazolin-10-yl)piperidin-1-yl)methyl)-1H-1,2,3-triazol-1-yl)-3,3-dimethylbutanoyl)-4-hydroxy-N-((S)-1-(4-(4-methylthiazol-5-yl)phenyl)ethyl)pyrrolidine-2-carboxamide], the DC50 at SMARCA2 was below 100 nM; on SMARCA4 it was 100 to 500 nM. In addition, the figures for the Dmax at SMARCA2 and on SMARCA4 were above 90% and below 50%, respectively.

`Cc1ncsc1-c1ccc([C@H](C)NC(=O)[C@@H]2C[C@@H](O)CN2C(=O)[C@@H](NC(=O)CCCN2CCC(c3ccc4c(c3)-n3c(nc(=O)c5c(Cl)cccc53)C4(C)C)CC2)C(C)(C)C)cc1` [Compound B45, (2S,4R)-1-((S)-2-(4-(4-(4-chloro-7,7-dimethyl-5-oxo-5,7-dihydroindolo[1,2-a]quinazolin-10-yl)piperidin-1-yl)butanamido)-3,3-dimethylbutanoyl)-4-hydroxy-N-((S)-1-(4-(4-methylthiazol-5-yl)phenyl)ethyl)pyrrolidine-2-carboxamide]: the DC50 on SMARCA2 was 100 to 500 nM; at SMARCA4, above 1000 nM. In addition, the figures for the Dmax at SMARCA2 and at SMARCA4 were 70 to 90% and below 50%, respectively.

With `C[C@H](NC(=O)[C@@H]1C[C@@H](O)CN1C(=O)[C@@H](n1cc([C@H]2CC[C@H](CN3CCC(c4ccc5c(c4)-n4c(nc(=O)c6c(Cl)cccc64)C5(C)C)CC3)CC2)nn1)C(C)(C)C)c1ccc(-c2scnc2C#N)cc1` [Compound B141, (2S,4R)-1-((S)-2-(4-((1r,4S)-4-((4-(4-chloro-7,7-dimethyl-5-oxo-5,7-dihydroindolo[1,2-a]quinazolin-10-yl)piperidin-1-yl)methyl)cyclohexyl)-1H-1,2,3-triazol-1-yl)-3,3-dimethylbutanoyl)-N-((S)-1-(4-(4-cyanothiazol-5-yl)phenyl)ethyl)-4-hydroxypyrrolidine-2-carboxamide], at SMARCA2, the DC50 was below 100 nM and the Dmax was above 90%. Moreover, on SMARCA4, the DC50 fell in the range of 100 to 500 nM and the Dmax is below 50%.

Take `Cc1ncsc1-c1ccc([C@H](C)NC(=O)[C@@H]2C[C@@H](O)CN2C(=O)[C@@H](NC(=O)C23CC(CN4CCC(c5ccc6c(c5)C(C)(C)c5nc(=O)c7c(Cl)cccc7n5-6)CC4)(C2)C3)C(C)(C)C)cc1` [Compound B23, (2S,4R)-1-((S)-2-(3-((4-(4-chloro-7,7-dimethyl-5-oxo-5,7-dihydroindolo[1,2-a]quinazolin-9-yl)piperidin-1-yl)methyl)bicyclo[1.1.1]pentane-1-carboxamido)-3,3-dimethylbutanoyl)-4-hydroxy-N-((S)-1-(4-(4-methylthiazol-5-yl)phenyl)ethyl)pyrrolidine-2-carboxamide]: the DC50 at SMARCA2 and at SMARCA4 was below 100 nM in each case. For the same compound, the Dmax is above 90% on SMARCA2 and 70 to 90% at SMARCA4.

As to `Cc1ncsc1-c1ccc([C@H](C)NC(=O)[C@@H]2C[C@@H](O)CN2C(=O)[C@@H](NC(=O)C2CCC(N3CCC(c4ccc5c(c4)-n4c(nc(=O)c6c(Cl)cccc64)C5(C)C)CC3)CC2)C(C)(C)C)cc1` (stereo partly drawn) [Compound B47, (2S,4R)-1-((S)-2-(4-(4-(4-chloro-7,7-dimethyl-5-oxo-5,7-dihydroindolo[1,2-a]quinazolin-10-yl)piperidin-1-yl)cyclohexane-1-carboxamido)-3,3-dimethylbutanoyl)-4-hydroxy-N-((S)-1-(4-(4-methylthiazol-5-yl)phenyl)ethyl)pyrrolidine-2-carboxamide], at SMARCA2, the DC50 was in the range of 100 to 500 nM and the Dmax lay within 70 to 90%. Further, at SMARCA4, the DC50 was in the range of 100 to 500 nM and the Dmax is below 50%.

`Cc1ncsc1-c1ccc([C@H](C)NC(=O)[C@@H]2C[C@@H](O)CN2C(=O)[C@@H](c2cc(OCC3CCC(N4CCC(c5cccc6c5C(C)(C)c5nc(=O)c7c(Cl)cccc7n5-6)CC4)CC3)no2)C(C)C)cc1` (stereo partly drawn) [Compound B100, (2S,4R)-1-((R)-2-(3-((4-(4-(4-chloro-7,7-dimethyl-5-oxo-5,7-dihydroindolo[1,2-a]quinazolin-8-yl)piperidin-1-yl)cyclohexyl)methoxy)isoxazol-5-yl)-3-methylbutanoyl)-4-hydroxy-N-((S)-1-(4-(4-methylthiazol-5-yl)phenyl)ethyl)pyrrolidine-2-carboxamide]: at SMARCA2, the DC50 was below 100 nM and the Dmax lay in the range of 70 to 90%. On SMARCA4, the DC50 is below 100 nM and the Dmax is below 50%.

As to `CNC(=O)[C@@H]1C[C@@H](O)CN1C(=O)[C@H](C(C)C)n1cc([C@H]2CC[C@H](CN3CCC(c4ccc5c(c4)-n4c(nc(=O)c6c(Cl)cccc64)C5(C)C)CC3)CC2)nn1` [Compound B59, (2S,4R)-1-((S)-2-(4-((1r,4S)-4-((4-(4-chloro-7,7-dimethyl-5-oxo-5,7-dihydroindolo[1,2-a]quinazolin-10-yl)piperidin-1-yl)methyl)cyclohexyl)-1H-1,2,3-triazol-1-yl)-3-methylbutanoyl)-4-hydroxy-N-methylpyrrolidine-2-carboxamide], the DC50 at SMARCA2 is 100 to 500 nM; on SMARCA4, above 1000 nM. Besides, the Dmax was 50 to 69% at SMARCA2 and below 50% on SMARCA4.

With `Cc1nc(C)c(-c2ccc([C@H](C)NC(=O)[C@@H]3C[C@@H](O)CN3C(=O)[C@@H](n3cc([C@H]4CC[C@H](CN5CCN(c6ccc7c(c6)-n6c(nc(=O)c8c(Cl)cccc86)C7(C)C)CC5)CC4)nn3)C(C)(C)C)cc2)s1` [Compound B133, (2S,4R)-1-((S)-2-(4-((1r,4S)-4-((4-(4-chloro-7,7-dimethyl-5-oxo-5,7-dihydroindolo[1,2-a]quinazolin-10-yl)piperazin-1-yl)methyl)cyclohexyl)-1H-1,2,3-triazol-1-yl)-3,3-dimethylbutanoyl)-N-((S)-1-(4-(2,4-dimethylthiazol-5-yl)phenyl)ethyl)-4-hydroxypyrrolidine-2-carboxamide], at SMARCA2, the DC50 was below 100 nM and the Dmax was above 90%. At SMARCA4, the DC50 is below 100 nM and the Dmax fell in the range of 70 to 90%.

For the compound `Cc1ncsc1-c1ccc([C@H](CN2CCOCC2)NC(=O)[C@@H]2C[C@@H](O)CN2C(=O)[C@H](C(C)C)n2cc([C@H]3CC[C@H](CN4CCC(c5ccc6c(c5)-n5c(nc(=O)c7c(Br)cccc75)C65CCCCC5)CC4)CC3)nn2)cc1` [Compound B106, (2S,4R)-1-((S)-2-(4-((1r,4S)-4-((4-(4′-bromo-5′-oxo-5′H-spiro[cyclohexane-1,7′-indolo[1,2-a]quinazolin]-10′-yl)piperidin-1-yl)methyl)cyclohexyl)-1H-1,2,3-triazol-1-yl)-3-methylbutanoyl)-4-hydroxy-N-((R)-1-(4-(4-methylthiazol-5-yl)phenyl)-2-morpholinoethyl)pyrrolidine-2-carboxamide], the DC50 on SMARCA2 and on SMARCA4 was below 100 nM in each case. Besides, the Dmax on SMARCA2 and at SMARCA4 was above 90% in each case.

With `Cc1ncsc1-c1ccc([C@H](C)NC(=O)[C@@H]2C[C@@H](O)CN2C(=O)[C@@H](c2cc(OC3CCC(Cn4cc(-c5ccc6c(c5)-n5c(nc(=O)c7c(Cl)cccc75)C6(C)C)cn4)CC3)no2)C(C)C)cc1` (stereo partly drawn) [Compound B95, (2S,4R)-1-((R)-2-(3-((4-((4-(4-chloro-7,7-dimethyl-5-oxo-5,7-dihydroindolo[1,2-a]quinazolin-10-yl)-1H-pyrazol-1-yl)methyl)cyclohexyl)oxy)isoxazol-5-yl)-3-methylbutanoyl)-4-hydroxy-N-((S)-1-(4-(4-methylthiazol-5-yl)phenyl)ethyl)pyrrolidine-2-carboxamide], at SMARCA2, the DC50 was 100 to 500 nM and the Dmax lay in the range of 50 to 69%. Moreover, on SMARCA4, the DC50 was above 1000 nM and the Dmax was below 50%.

(Values after US20260092071A1, “COMPOUNDS AND COMPOSITIONS AS SMARCA2/4 DEGRADERS AND USES THEREOF” (REGENTS OF THE UNIVERSITY OF MICHIGAN, priority 2022, published 2026).)
